Hardness of flesh data for one compound are collected here from patent US20040192554A1, “Technique for effectively treating an agricultural product with a 1-substituted-cyclopropene” (priority 2003, published 2004).

The assay deals with peach (variety "Akatsuki") fruit. Put plainly: Quality deterioration of peach (Akatsuki) fruit after storage, Example 8. The format is in vivo. The note with it: 1 ppm, after storage 25 degrees C 5 days, treated on day of harvest. As for the experimental part:
Using a peach (variety “Akatsuki”) fruit (6 fruits were used per group) as an agricultural product, the following experiment was performed.
1) A fruit and 1-methylcyclopropene (concentration in a chamber 1 ppm) were placed into a sealed chamber, and contact-treated for 12 hours under a normal pressure.
2) A fruit was placed into a sealed chamber, and a pressure in the chamber was reduced to 25.0 kPa. Subsequently, 1-methylcyclopropene was placed therein to the concentration in the chamber of 1 ppm, and contact-treated for 1 minute under the reduced pressure (25.0 kPa). Then, the pressure was returned to a normal pressure, and contact treatment was carried out for 12 hours while the concentration of 1-methylcyclopropene in the chamber was maintained at 1 ppm.
The fruit which had been subjected to treatment of the above-mentioned 1) or 2) was stored at 25 degrees C for 5 days, and hardness of flesh was measured. In addition, contact treatment of the above-mentioned 1) or 2) was performed on a day for harvesting of a fruit. In addition, also regarding a fruit undergoing no treatment of 1) or 2) (non-treatment), similar storage was performed, and the above-mentioned index was measured. Further, regarding a non-treated fruit, the above-mentioned index before storage was also measured. […]

For the compound `CC1=CC1` [1-MCP, 1-methylcyclopropene], the Hardness of flesh is, setting by setting: (Normal pressure 12 hours after reduced pressure (25.0 kPa) 1 minute) 6.18b N; (Normal pressure 12 hours) 2.84a N.
